Source: US11773086B2, “Fungal modulators” (TRUSTEES OF BOSTON UNIVERSITY, priority 2020, dated 2023)

Legend:
[1] = tested on: C. auris; test: Sterol composition by LC-MS; assay type: cell-based, Candida auris; conditions: 18 hours
Source text: FIGS. 3A-3B, and 4A-4B illustrate azoffluxin increases fluconazole (FLC) bioavailability by inhibiting Cdr1-mediated efflux in C. auris, as described above. FIG. 3A depicts the relative abundance of specific sterols determined in C. auris after an 18-hour treatment with the respective compounds (⋅ indicates combo treatment concentrations) using LC-MS. Values are plotted relative to the internal standard of cholesterol and error bars indicate standard deviation between technical triplicates. Significance was determined by an unpaired student t-test of each condition to untreated, (*) indicates a p-value<0.05 and (**) indicates a p-value<0.01. FIG. 3B depicts the intracellular concentrations of FLC and azoffluxin measured after treatment for 1 hour (conditions as in FIG. 3A) Error bars indicate standard deviation between technical triplicates. Significance was determined by an unpaired student t-test, (**) indicates a p-value<0.01. FIG. 4A depicts the quantified relative expression of a panel of putative efflux pumps in C. auris Ci6684. Expression of CDR1 (B9J08_000164), MDR1 (B9J08_003981), CDR4-1 (B9J08_000479), CDR4-2 (B9J08_002451), SNQ2-1 (B9J08_001125), and SNQ2-2 (B9J08_004452) was measured by RT-qPCR. […] FIG. 4B depicts expression of CDR1 (B9J08_000164) and CDR4-1 (B9J08_000479) measured by quantitative real-time PCR (RT-qPCR). […]

[2] = tested on: C. albicans CaCi-17 efflux; test: Nile red accumulation (flow cytometry) in CaCi-17; assay type: cell-based, Candida albicans; conditions: CaCi-17 and its cdr1Δ/cdr1Δ mutant
Method: FIG. 9A depicts checkerboard assays as described in FIG. 2B and performed with isolates of C. albicans. CaCi-2 and CaCi-17 represent early and late clinical isolates in which FLC resistance evolved over time. Growth was measured at 24 hours using OD600 and normalized to a no drug control well (see color bar). FIG. 9B depicts dose response assays conducted in YPD medium with a C. albicans parental strain, and strains with gain of function mutations in TAC1 as indicated. FLC was tittered in a two-fold dilution on the x-axis in the absence and presence of 50 μM azoffluxin. Growth was measured at 24 hours using OD600 and normalized to a no drug control well (see color bar). […] FIGS. 9D and 9E depict the intracellular concentrations of FLC and azoffluxin measured after treatment (combo treatment at 6.25 μM azoffluxin and 8 μg/mL FLC) for 1 hour by LC-MS. […] Significance was determined by an unpaired student t-test of each combination to the respective compound alone treatment, (*) indicates a p-value<0.05 and (**) indicates a p-value<0.01.
Cellular efflux was determined by measuring Nile red accumulation, as previously described. […] To quantify fluorescence, a CytoFlex Flow Cytometer (Beckman Coulter) was used. […] Each sample was run using the CytExpert Software until ˜20,000 events had been recorded. […]

Compound: C=C(C)C[C@@H](O)COc1cc2c(cc1C1(c3cc4c(cc3OC[C@H](O)CC(=C)C)OCO4)C(=O)Nc3cc(F)ccc31)OCO2 [CMLD012336]
- increase in 14-α-methyl-3,6-diol ([1]; azoffluxin + low fluconazole vs low fluconazole alone): 4 fold
- abundance of ergosterol, lanosterol, 14-α-methyl-3,6-diol ([1]; azoffluxin alone vs untreated): No significant increases
- Nile red accumulation [2]: increase in Nile red accumulation
